pEC50: −log10 of the molar value. Read-outs that look alike come from different tables or passages of the source.
How the values were obtained:
Type in all cases: cell-based, hepatitis C virus
[1] = test system: genotype 4a (ED43) stable HCV replicon in Huh-7-derived cells; assay: Stable subgenomic HCV replicon EC50, genotype 4a (Renilla luciferase); details: Hepatitis C virus, 72 h, read-out: EC50 4A RLUC
Outline: (§1)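 Compounds, three-fold diluted, were applied to Huh-7-derived cells harbouring luciferase replicons (genotype 1a H77, 1b Con1, 2a JFH-1, 4a ED43, with strain-specific adaptive mutations). Seventy-two hours later, intracellular replication was gauged by Renilla luciferase activity and EC50 derived by regression.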

[2] = test system: genotype 1a (H77) wild type transient HCV replicon in Huh-7-derived cells; assay: Transient-transfected HCV replicon EC50, genotype 1a wild type; details: Hepatitis C virus, 72 h, read-out: EC50 1A WT
[3] = test system: genotype 1b (Con1) stable HCV replicon in Huh-7-derived cells; assay: Stable subgenomic HCV replicon EC50, genotype 1b (Renilla luciferase); details: Hepatitis C virus, stable replicon genotype 1b, 72 h, read-out: EC50 1B RLUC
Outline: as §1

[4] = test system: genotype 3a (S52) stable HCV replicon in Huh-7-derived cells; assay: Stable subgenomic HCV replicon EC50, genotype 3a (Renilla luciferase); details: Hepatitis C virus, 72 h, read-out: EC50 3A RLUC
[5] = test system: genotype 2a (JFH-1) stable HCV replicon in Huh-7-derived cells; assay: Stable subgenomic HCV replicon EC50, genotype 2a (Renilla luciferase); details: Hepatitis C virus, stable replicon genotype 2a, 72 h, read-out: EC50 2A RLUC
Outline: as §1

[6] = test system: genotype 1b (Con1) wild type transient HCV replicon in Huh-7-derived cells; assay: Transient-transfected HCV replicon EC50, genotype 1b wild type; details: Hepatitis C virus, 72 h, read-out: EC50 1B WT
[7] = test system: genotype 1b NS3/4a protease inhibitor resistant variant D168A transient HCV replicon in Huh-7-derived cells; assay: Transient-transfected HCV replicon EC50, genotype 1b D168A; details: Hepatitis C virus, 72 h, read-out: EC50 1B D168A, transient-transfected replicon genotype 1b D168A resistant variant, 72 h
[8] = test system: genotype 1a (H77) stable HCV replicon in Huh-7-derived cells; assay: Stable subgenomic HCV replicon EC50, genotype 1a (Renilla luciferase); details: Hepatitis C virus, stable replicon genotype 1a, 72 h, read-out: EC50 1A RLUC
Outline: as §1

[9] = test system: genotype 3a (S52) wild type transient HCV replicon in Huh-7-derived cells; assay: Transient-transfected HCV replicon EC50, genotype 3a wild type; details: Hepatitis C virus, 72 h, read-out: EC50 3A WT
[10] = test system: genotype 1a NS3/4a protease inhibitor resistant variant R155K transient HCV replicon in Huh-7-derived cells; assay: Transient-transfected HCV replicon EC50, genotype 1a R155K; details: Hepatitis C virus, 72 h, read-out: EC50 1A R155K, transient-transfected replicon genotype 1a R155K resistant variant, 72 h
[11] = transient-transfected replicon genotype 1a wild type
[12] = transient-transfected replicon genotype 1b wild type
[13] = transient-transfected replicon genotype 3a wild type

| Structure (SMILES) | pEC50 [1] | pEC50 [2, 11] | pEC50 [3] | pEC50 [4] | pEC50 [5] | pEC50 [6, 12] | pEC50 [7] | pEC50 [8] | pEC50 [9, 13] | pEC50 [10] | pEC50 [2] | pEC50 [6] | pEC50 [9] |
| --- | --- | --- | --- | --- | --- | --- | --- | --- | --- | --- | --- | --- | --- |
| CC[C@@H]1[C@@H]2CN(C(=O)[C@H](C(C)(C)C)NC(=O)O[C@@H]3C[C@@H]4C[C@@H]4[C@H]3CCCCC(F)(F)c3nc4ccc(OC)cc4nc3O2)[C@@H]1C(=O)N[C@]1(C(=O)NS(=O)(=O)C2(C)CC2)C[C@H]1C(F)F [Example 61, (1aS,2aR,6S,9S,10S,11R,23aR,23bS)-6-tert-butyl-N-[(1R,2R)-2-(difluoromethyl)-1-{[(1-methylcyclopropyl)sulfonyl]carbamoyl}cyclopropyl]-10-ethyl-19,19-difluoro-15-methoxy-4,7-dioxo-1a,2,2a,4,5,6,7,10,11,19,20,21,22,23,23a,23b-hexadecahydro-1H,9H-8,11-methanocyclopropa[4′,5′]cyclopenta[1′,2′:18,19][1,10,3,6]dioxadiazacyclononadecino[11,12-b]quinoxaline-9-carboxamide] | 7.96 | 7.92 | 8.00 | 7.55 | 8.06 | 8.03 | 8.17 | 7.89 | 7.89 | 8.00 |  |  |  |
| C=C[C@@H]1C[C@]1(NC(=O)[C@@H]1[C@H](CC)[C@@H]2CN1C(=O)[C@H](C(C)(C)C)NC(=O)O[C@@H]1C[C@H]1CCCCC(F)(F)c1nc3ccc(OC)cc3nc1O2)C(=O)NS(=O)(=O)C1CC1 [Example 92, (1aR,5S,8S,9S,10R,22aR)-5-tert-butyl-N-{(1R,2S)-1-[(cyclopropylsulfonoyl)carbamoyl]-2-ethenylcyclopropyl}-9-ethyl-18,18-difluoro-14-methoxy-3,6-dioxo-1,1a,3,4,5,6,9,10,18,19,20,21,22,22a-tetradecahydro-8H-7,10-methanocyclopropa[18,19][1,10,3,6]dioxadiazacyclononadecino[11,12-b]quinoxaline-8-carboxamide] | 8.49 | 8.52 | 8.49 | 7.24 | 8.34 | 8.77 | 8.28 | 8.48 | 8.10 | 8.52 |  |  |  |
| COc1ccc2nc3c(nc2c1)O[C@H]1CN(C(=O)[C@H](C(C)(C)C)NC(=O)O[C@H]2CC4CC(C4)[C@@H]2CCCCC3)[C@H](C(=O)N[C@]2(C(=O)NS(=O)(=O)C3CC3)C[C@H]2C(F)F)[C@@H]1C [Example 72, (4aS,8S,11S,12S,13R,25aS)-8-tert-butyl-N-[(1R,2R)-1-[(cyclopropylsulfonyl)carbamoyl]-2-(difluoromethyl)cyclopropyl]-17-methoxy-12-methyl-6,9-dioxo-2,3,4,4a,6,7,8,9,12,13,21,22,23,24,25,25a-hexadecahydro-1H,11H-1,3:10,13-dimethanoquinoxalino[2,3-k][1,10,3,6]benzodioxadiazacyclononadecine-11-carboxamide] | 6.42 | 6.22 | 6.52 | 5.74 | 6.13 | 6.78 | 6.16 | 6.44 | 6.19 | 6.64 |  |  |  |
| COc1ccc2nc3c(nc2c1)O[C@H]1CN(C(=O)[C@H](C(C)(C)C)NC(=O)O[C@@H]2C[C@@H]4C[C@@H]4[C@H]2CCCCC3)[C@H](C(=O)N[C@]2(C(=O)NS(=O)(=O)C3CC3)C[C@H]2CC(F)F)[C@@H]1C [Example 57, (1aS,2aR,6S,9S,10S,11R,23aR,23bS)-6-tert-butyl-N-[(1R,2S)-1-[(cyclopropylsulfonyl)carbamoyl]-2-(2,2-difluoroethyl)cyclopropyl]-15-methoxy-10-methyl-4,7-dioxo-1a,2,2a,4,5,6,7,10,11,19,20,21,22,23,23a,23b-hexadecahydro-1H,9H-8,11-methanocyclopropa[4′,5′]cyclopenta[1′,2′:18,19][1,10,3,6]dioxadiazacyclononadecino[11,12-b]quinoxaline-9-carboxamide] | 8.31 |  | 7.96 | 6.78 | 7.68 |  | 7.32 | 7.92 |  | 7.77 | 7.92 | 8.12 | 7.27 |
| CC[C@@H]1[C@@H]2CN(C(=O)[C@H](C(C)(C)C)NC(=O)O[C@]3(C)CCC[C@H]3CCCCCc3nc4ccc(OC)cc4nc3O2)[C@@H]1C(=O)N[C@]1(C(=O)NS(=O)(=O)C2(C)CC2)C[C@H]1CCF [Example 52, (3aR,7S,10S,11S,12R,24aR)-7-tert-butyl-11-ethyl-N-[(1R,2S)-2-(2-fluoroethyl)-1-{[(1-methylcyclopropyl)sulfonyl]carbamoyl}cyclopropyl]-16-methoxy-3a-methyl-5,8-dioxo-1,2,3,3a,5,6,7,8,11,12,20,21,22,23,24,24a-hexadecahydro-10H-9,12-methanocyclopenta[18,19][1,10,3,6]dioxadiazacyclononadecino[11,12-b]quinoxaline-10-carboxamide] | 6.79 | 6.82 | 6.61 | 5.64 | 6.42 | 6.79 | 6.05 | 6.71 | 6.27 | 6.29 |  |  |  |
| CCC[C@@H]1[C@@H]2CN(C(=O)[C@H](C(C)(C)C)NC(=O)O[C@@H]3C[C@H]3CCCCC(F)(F)c3nc4ccc(OC)cc4nc3O2)[C@@H]1C(=O)N[C@]1(C(=O)NS(=O)(=O)C2(C)CC2)C[C@H]1C(F)F [Example 65, (1aR,5S,8S,9S,10R,22aR)-5-tert-butyl-N-[(1R,2R)-2-(difluoromethyl)-1-{[(1-methylcyclopropyl)sulfonyl]carbamoyl}cyclopropyl]-18,18-difluoro-14-methoxy-3,6-dioxo-9-propyl-1,1a,3,4,5,6,9,10,18,19,20,21,22,22a-tetradecahydro-8H-7,10-methanocyclopropa[18,19][1,10,3,6]dioxadiazacyclononadecino[11,12-b]quinoxaline-8-carboxamide] | 8.09 |  | 8.08 | 7.52 | 8.11 |  | 7.96 | 7.92 |  | 8.09 | 8.03 | 8.19 | 7.77 |

— patent US10335409B2 (priority 2012, dated 2019)
